Results as given in ChEMBL document CHEMBL3885881, “DrugMatrix”.

Species: Rattus norvegicus
Assay: DrugMatrix - Regimen: Daily Repeat
Assay type: toxicity, organism-based, Sprague-Dawley
Set-up: regimen Daily Repeat, gender Male, age 6-8 weeks
Details: in vivo, po, route oral GAVAGE, […]; for ABSOLUTE BASOPHIL / ABSOLUTE EOSINOPHIL / ABSOLUTE LYMPHOCYTE / ABSOLUTE MONOCYTE / ABSOLUTE SEGMENTED NEUTROPHIL / BASOPHIL / EOSINOPHIL / ERYTHROCYTE COUNT / HEMATOCRIT / HEMOGLOBIN / LEUKOCYTE COUNT / LYMPHOCYTE / MEAN CORPUSCULAR HEMOGLOBIN / MEAN CORPUSCULAR HEMOGLOBIN CONCENTRATION / MEAN CORPUSCULAR VOLUME / MONOCYTE / NEUTROPHIL / NUCLEATED RED BLOOD CELLS / PLATELET COUNT: tissue Blood; for ALANINE AMINOTRANSFERASE / ALBUMIN / ALKALINE PHOSPHATASE / ASPARTATE AMINOTRANSFERASE / BLOOD UREA NITROGEN / CARBON DIOXIDE / CHLORIDE / CHOLESTEROL / CREATINE PHOSPHOKINASE / CREATININE / GLUCOSE / LACTATE DEHYDROGENASE / LIPASE / PHOSPHORUS / SODIUM / TOTAL BILIRUBIN / TOTAL PROTEIN / URIC ACID: tissue Plasma
[1] = 450 mg/kg, 120 h, dose level Low, time 5 day
[2] = 1500 mg/kg, 72 h, dose level High, time 3 day
[3] = 1500 mg/kg, 120 h, dose level High, time 5 day

SMILES: CC[C@H](C)C(=O)O[C@H]1C[C@@H](C)C=C2C=C[C@H](C)[C@H](CC[C@@H]3C[C@@H](O)CC(=O)O3)[C@H]21 [LOVASTATIN]
- ABSOLUTE BASOPHIL [1]: 0 CELLS/uL
- ABSOLUTE EOSINOPHIL [1]: 0 CELLS/uL
- ABSOLUTE LYMPHOCYTE [1]: 8158 CELLS/uL
- ABSOLUTE MONOCYTE [1]: 134 CELLS/uL
- ABSOLUTE SEGMENTED NEUTROPHIL [1]: 1208 CELLS/uL
- BASOPHIL [1]: 0%
- EOSINOPHIL [1]: 0%
- ERYTHROCYTE COUNT [1]: 6.46 x10E6/uL
- HEMATOCRIT [1]: 40.17%
- HEMOGLOBIN [1]: 15.27 G/DL
- LEUKOCYTE COUNT [1]: 9.5 x10E3/uL
- LYMPHOCYTE [1]: 86%
- MEAN CORPUSCULAR HEMOGLOBIN [1]: 23.63 pg
- MEAN CORPUSCULAR HEMOGLOBIN CONCENTRATION [1]: 38.03 G/DL
- MEAN CORPUSCULAR VOLUME [1]: 62.2 fL
- MONOCYTE [1]: 1.33%
- NEUTROPHIL [1]: 12.67%
- NUCLEATED RED BLOOD CELLS [1]: 0 /100WBC
- PLATELET COUNT [1]: 1425.67 x10E3/uL
- ALANINE AMINOTRANSFERASE [1]: 153 u/L
- ALBUMIN [1]: 4.83 G/DL
- ALKALINE PHOSPHATASE [1]: 635.67 u/L
- ASPARTATE AMINOTRANSFERASE [1]: 360.33 u/L
- BLOOD UREA NITROGEN [1]: 15.33 mg/dL
- CARBON DIOXIDE [1]: 35.67 mmol/L
- CHLORIDE [1]: 100.5 MEQ/L
- CHOLESTEROL [1]: 28.67 mg/dL
- CREATINE PHOSPHOKINASE [1]: 410.33 u/L
- CREATININE [1]: 0.31 mg/dL
- GLUCOSE [1]: 137.33 mg/dL
- LACTATE DEHYDROGENASE [1]: 182.33 u/L
- LIPASE [1]: 15.33 u/L
- PHOSPHORUS [1]: 8.7 mg/dL
- SODIUM [1]: 145.2 MEQ/L
- TOTAL BILIRUBIN [1]: 0.23 mg/dL
- TOTAL PROTEIN [1]: 6.1 G/DL
- URIC ACID [1]: 0.5 mg/dL
- ABSOLUTE BASOPHIL [2]: 0 CELLS/uL
- ABSOLUTE EOSINOPHIL [2]: 21.67 CELLS/uL
- ABSOLUTE LYMPHOCYTE [2]: 6143.33 CELLS/uL
- ABSOLUTE MONOCYTE [2]: 201 CELLS/uL
- ABSOLUTE SEGMENTED NEUTROPHIL [2]: 2134 CELLS/uL
- BASOPHIL [2]: 0%
- EOSINOPHIL [2]: 0.33%
- ERYTHROCYTE COUNT [2]: 5.62 x10E6/uL
- HEMATOCRIT [2]: 35.1%
- HEMOGLOBIN [2]: 13.97 G/DL
- LEUKOCYTE COUNT [2]: 8.5 x10E3/uL
- LYMPHOCYTE [2]: 72%
- MEAN CORPUSCULAR HEMOGLOBIN [2]: 24.9 pg
- MEAN CORPUSCULAR HEMOGLOBIN CONCENTRATION [2]: 39.83 G/DL
- MEAN CORPUSCULAR VOLUME [2]: 62.5 fL
- MONOCYTE [2]: 2.33%
- NEUTROPHIL [2]: 25.33%
- NUCLEATED RED BLOOD CELLS [2]: 0 /100WBC
- PLATELET COUNT [2]: 1031.67 x10E3/uL
- ALANINE AMINOTRANSFERASE [2]: 318 u/L
- ALBUMIN [2]: 4.3 G/DL
- ALKALINE PHOSPHATASE [2]: 538.67 u/L
- ASPARTATE AMINOTRANSFERASE [2]: 602.33 u/L
- BLOOD UREA NITROGEN [2]: 15.33 mg/dL
- CARBON DIOXIDE [2]: 30.33 mmol/L
- CHLORIDE [2]: 98 MEQ/L
- CHOLESTEROL [2]: 50 mg/dL
- CREATINE PHOSPHOKINASE [2]: 490 u/L
- CREATININE [2]: 0.37 mg/dL
- GLUCOSE [2]: 141.67 mg/dL
- LACTATE DEHYDROGENASE [2]: 851.33 u/L
- LIPASE [2]: 10.33 u/L
- PHOSPHORUS [2]: 10.3 mg/dL
- SODIUM [2]: 142.63 MEQ/L
- TOTAL BILIRUBIN [2]: 0.1 mg/dL
- TOTAL PROTEIN [2]: 5.53 G/DL
- URIC ACID [2]: 0.7 mg/dL
- ABSOLUTE BASOPHIL [3]: 0 CELLS/uL
- ABSOLUTE EOSINOPHIL [3]: 0 CELLS/uL
- ABSOLUTE LYMPHOCYTE [3]: 8899 CELLS/uL
- ABSOLUTE MONOCYTE [3]: 314.33 CELLS/uL
- ABSOLUTE SEGMENTED NEUTROPHIL [3]: 2320 CELLS/uL
- BASOPHIL [3]: 0%
- EOSINOPHIL [3]: 0%
- ERYTHROCYTE COUNT [3]: 6.78 x10E6/uL
- HEMATOCRIT [3]: 41.27%
- HEMOGLOBIN [3]: 15.53 G/DL
- LEUKOCYTE COUNT [3]: 11.53 x10E3/uL
- LYMPHOCYTE [3]: 76%
- MEAN CORPUSCULAR HEMOGLOBIN [3]: 22.93 pg
- MEAN CORPUSCULAR HEMOGLOBIN CONCENTRATION [3]: 37.63 G/DL
- MEAN CORPUSCULAR VOLUME [3]: 60.93 fL
- MONOCYTE [3]: 2.67%
- NEUTROPHIL [3]: 21.33%
- NUCLEATED RED BLOOD CELLS [3]: 0 /100WBC
- PLATELET COUNT [3]: 1526.33 x10E3/uL
- ALANINE AMINOTRANSFERASE [3]: 234.33 u/L
- ALBUMIN [3]: 4.7 G/DL
- ALKALINE PHOSPHATASE [3]: 440.67 u/L
- ASPARTATE AMINOTRANSFERASE [3]: 648.33 u/L
- BLOOD UREA NITROGEN [3]: 17 mg/dL
- CARBON DIOXIDE [3]: 35.67 mmol/L
- CHLORIDE [3]: 100.5 MEQ/L
- CHOLESTEROL [3]: 55.33 mg/dL
- CREATINE PHOSPHOKINASE [3]: 603 u/L
- CREATININE [3]: 0.34 mg/dL
- GLUCOSE [3]: 135 mg/dL
- LACTATE DEHYDROGENASE [3]: 832.33 u/L
- LIPASE [3]: 14.67 u/L
- PHOSPHORUS [3]: 8.5 mg/dL
- SODIUM [3]: 145.6 MEQ/L
- TOTAL BILIRUBIN [3]: 0.2 mg/dL
- TOTAL PROTEIN [3]: 6.33 G/DL
- URIC ACID [3]: 0.63 mg/dL
